Laboratory results: patent US6083944A, “Quinoline-containing α-ketoamide cysteine and serine protease inhibitors” (Cephalon, Inc., priority 1998, dated 2000)

Columns and labels:
Assay type in all cases: biochemical
[1] = target: T1, Recombinant human calpain I (Homo sapiens, UniProt P07384); assay: Inhibition of calpain I (Succ-Leu-Tyr-MNA hydrolysis); conditions: Tables 2-4; pH 7.5
T1 construct: made in house
T1 sequence (P07384 1-714): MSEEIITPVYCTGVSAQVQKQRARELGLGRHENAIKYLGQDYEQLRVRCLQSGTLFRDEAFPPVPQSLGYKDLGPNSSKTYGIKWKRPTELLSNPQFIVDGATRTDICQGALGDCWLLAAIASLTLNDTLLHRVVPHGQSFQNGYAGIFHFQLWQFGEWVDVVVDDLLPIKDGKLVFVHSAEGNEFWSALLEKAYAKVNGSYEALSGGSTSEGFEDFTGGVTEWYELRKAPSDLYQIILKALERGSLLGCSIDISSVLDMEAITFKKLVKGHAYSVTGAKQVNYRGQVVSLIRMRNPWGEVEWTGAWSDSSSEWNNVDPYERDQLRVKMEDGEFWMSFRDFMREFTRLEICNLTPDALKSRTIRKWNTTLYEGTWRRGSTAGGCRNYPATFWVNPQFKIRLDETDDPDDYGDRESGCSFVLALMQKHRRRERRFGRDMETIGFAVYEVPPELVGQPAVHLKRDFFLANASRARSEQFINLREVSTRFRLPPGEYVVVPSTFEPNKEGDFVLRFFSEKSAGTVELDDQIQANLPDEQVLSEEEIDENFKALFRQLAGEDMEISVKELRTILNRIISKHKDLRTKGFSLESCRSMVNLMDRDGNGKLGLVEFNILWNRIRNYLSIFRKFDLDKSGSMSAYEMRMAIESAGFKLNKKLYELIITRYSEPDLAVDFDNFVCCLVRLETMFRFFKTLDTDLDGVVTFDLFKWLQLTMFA
Method: (§1) To evaluate inhibitory activity, stock solutions (40 times concentrated) of each compound to be tested were prepared in 100% anhydrous DMSO and 5 μl of each inhibitor preparation was aliquoted into each of three wells of a 96-well plate. Recombinant human calpain I, prepared by the method of Meyer et al. (Biochem. J. 1996, 314: 511-519), was diluted into assay buffer (i.e., 50 mM Tris, 50 mM NaCl, 1 mM EDTA, 1 mM EGTA, and 5 mM β-mercaptoethanol, pH 7.5, including 0.2 mM Succ-Leu-Tyr-MNA), and 175 μl was aliquoted into the same wells containing the independent inhibitor stocks as well as to positive control wells containing 5 μl DMSO, but no compound. To start the reaction, 20 μl of 50 mM CaCl2 in assay buffer was added to all wells of the plate, excepting three, which were used as background signal baseline controls. Substrate hydrolysis was monitored every 5 minutes for a total of 30 minutes. Substrate hydrolysis in the absence of inhibitor was linear for up to 15 minutes.
(§2) Inhibition of calpain I activity was calculated as the percent decrease in the rate of substrate hydrolysis in the presence of inhibitor relative to the rate in its absence. Comparison between the inhibited and control rates was made within the linear range for substrate hydrolysis. The IC50 S of inhibitors (concentration yielding 50% inhibition) were determined from the percent decrease in rates of substrate hydrolysis in the presence of five to seven different concentrations of the test compound. The results were plotted as percent inhibition versus log inhibitor concentration, and the IC50 was calculated by fitting the data to the four-parameter logistic equation shown below using the program GraphPad Prism (GraphPad Software, Inc., San Diego, Calif.).
The parameters a, b, c, and d are defined as follows: a is % inhibition in the absence of inhibitor, b is the slope, c is the IC50, and d is the % inhibition at an infinite concentration of inhibitor.

[2] = target: T2, cathepsin B (Homo sapiens, UniProt P07858); assay: Inhibition of cathepsin B (Cbz-Phe-Arg-AMC hydrolysis); conditions: Table 6; pH 6.0; read-out: Cath. B IC50
T2 construct: purchased Calbiochem 219364
Method: as §1, §2
Additionally, the order of reagents added to the plate was altered because the enzyme is consitutively active. Following inhibitor addition to the plates, appropriate 2× concentrated stock dilutions of the enzyme preparations were made in assay buffer and 100 μl added to each well. The assay was initiated by addition of 100 μl of 2× concentrated stock dilution of substrate in assay buffer. Substrate hydrolysis was monitored using a Fluoriskan II (ex=390 nm; em=460 nm).

[3] = target: T3, α-chymotrypsin (Bos taurus, UniProt P00766); assay: Inhibition of serine protease α-chymotrypsin (Succ-Ala-Ala-Pro-Phe-AMC hydrolysis); conditions: Table 6; pH 7.5
T3 construct: purchased Sigma Chem. Co. C-3142
Method: as §1, §2
Additionally, because α-chymotrypsin is not a calcium sensitive enzyme and is constitutively active, following addition of inhibitor stocks to the 96 well plates, 100 μl of a 2-fold concentrated stock of enzyme in dilution buffer was first added and the reaction was started by addition of 100 μl of a 2-fold concentrated stock of substrate in assay buffer. Substrate hydrolysis was monitored every 5 minutes up to 30 minutes using a Fluoroskan II (ex=390 nm em=460 nm).

Structure (SMILES): O=C(NCCNS(=O)(=O)c1ccccc1)C(=O)[C@H](Cc1ccccc1)NC(=O)c1cc(C#Cc2ccccc2)nc2ccccc12 [Example 96]
- IC50 [1]: 29 nM
- IC50 [2]: 375 nM
- IC50 [3]: 66 nM

Structure (SMILES): O=C(NCCNS(=O)(=O)c1ccc([N+](=O)[O-])cc1)C(=O)C(Cc1ccccc1)NC(=O)c1cc(C#Cc2ccccc2)nc2ccccc12 (single isomer, unassigned) [Example 84]
- IC50 [2]: 348 nM
- IC50 [3]: 14 nM

Structure (SMILES): O=C(NOCc1ccccc1)C(=O)C(Cc1ccccc1)NC(=O)c1cc(C#Cc2ccccc2)nc2ccccc12 (stereo not shown) [Example 104]
- IC50 [1]: 60 nM
- IC50 [2]: 330 nM
- IC50 [3]: 1160 nM

Structure (SMILES): CCONC(=O)C(=O)C(Cc1ccccc1)NC(=O)c1cc(C#Cc2ccccc2)nc2ccccc12 (stereo not shown) [Example 103]
- IC50 [1]: 65 nM
- IC50 [2]: 435 nM
- IC50 [3]: 380 nM

Structure (SMILES): O=C(NCCCNS(=O)(=O)c1ccccc1)C(=O)C(Cc1ccccc1)NC(=O)c1cc(C#Cc2ccccc2)nc2ccccc12 (stereo not shown) [Example 100]
- IC50 [1]: 55 nM
- IC50 [2]: 360 nM
- IC50 [3]: 36 nM

Structure (SMILES): O=C(NCCNS(=O)(=O)c1ccc(-c2ccccn2)s1)C(=O)C(Cc1ccccc1)NC(=O)c1cc(C#Cc2ccccc2)nc2ccccc12 (stereo not shown) [Example 86]
- IC50 [2]: 1030 nM
- IC50 [3]: 475 nM
